Data taken from patent EP4786462A1, “PYRIDONE COMPOUNDS AND PREPARATION METHOD THEREFOR, AND APPLICATION” (Shenzhen Salubris Pharmaceuticals Co., Ltd., priority 2023, dated 2025).

Experiments:
[1] = target: T1, hERG channel (Homo sapiens, UniProt Q12809); assay: Effect on hERG current in hERG-HEK293 cells (automated patch-clamp); type: cell-based; details: 30 µM compound, peak tail current vs 0.3% DMSO
T1 construct: expressed in transfected cells

[2] = Pharmacokinetic experiment in rats (iv and PO administration); type: in vivo; details: male, rat, plasma, SD rats, 5 mg/kg; for AUC(0-t): read-out: AUC0-24h
From the text: Polyethylene glycol 400 (lot number R22040588, Shanghai Shaoyuan Reagent Co., Ltd.), DMSO (lot number 20200319, Guangdong Guanghua Sci-Tech Co., Ltd.), Sodium Chloride Physiological Solution (lot number 2011110727, Chenxin Pharmaceutical Co., Ltd.). LC-MS instrument (Thermo Fisher Ultimate 3000 UPLC, TSQ QUANTUM ULTRA triple quadrupole mass spectrometer, AB SCIEX 5500+ QTARP).
SD rats: Male, 180-250 g, purchased from Guangdong Vital River Laboratory Animal Technology Co., Ltd.
The test compound powder was accurately weighed and completely dissolved in DMSO. PEG-400 was added, vortexed and sonicated to mix, then sodium chloride physiological solution was added, vortexed and sonicated to mix to form a 0.5 mg/mL solution (DMSO:PEG-400:NS = 5:60:35, V/V/V). For oral gavage administration, the dose was 10 mL/kg; for intravenous administration, the dose was 2 mL/kg.
After intravenous or oral gavage administration to rats, venous blood (200 µL) was collected at 5 min (not collected for oral gavage administration), 15 min, 30 min, 1 h, 2 h, 5 h, 7 h, and 24 h into EDTA-K2-anticoagulated EP tubes. The samples were centrifuged at 10000 rpm for 2 min, and the plasma was collected and stored at -80 °C until analysis.
A certain amount of the test compound was accurately weighed and dissolved in DMSO to 2 mg/mL as a stock solution. An appropriate volume of the compound stock solution was accurately transferred and diluted with acetonitrile to prepare a series of standard solutions. 4 µL of each standard solution was accurately transferred, and 36 µL of blank plasma was added, vortexed to mix, to prepare plasma samples equivalent to plasma concentrations of 1, 3, 5, 10, 30, 100, 300, 1000, 3000 ng/mL. Each concentration was analyzed in duplicate to establish a standard curve. 30 µL of plasma was taken, and 200 µL of an acetonitrile solution containing internal standard propranolol (5 ng/mL) was added. After vortex mixing, the samples were centrifuged at 4000 rpm for 10 min, and the supernatant was taken for LC-MS analysis. The LC-MS detection conditions were as follows: Column: YMC-Triart C18, 50×2.1 mm, S-3µm, 12 nm.
Mobile phase A: water (0.1% formic acid), mobile phase B: acetonitrile, flow rate: 0.5 mL/min, gradient elution as shown in Table 2 below: Table 2
After detecting plasma concentrations by LC-MS, pharmacokinetic parameters in rats after administration were calculated using a non-compartmental model with WinNonlin 6.1 software. Table 3: Pharmacokinetic Parameters of the Compound of the Present Disclosure in Rats (iv and PO Administration)

T1 sequence (Q12809 whole entry): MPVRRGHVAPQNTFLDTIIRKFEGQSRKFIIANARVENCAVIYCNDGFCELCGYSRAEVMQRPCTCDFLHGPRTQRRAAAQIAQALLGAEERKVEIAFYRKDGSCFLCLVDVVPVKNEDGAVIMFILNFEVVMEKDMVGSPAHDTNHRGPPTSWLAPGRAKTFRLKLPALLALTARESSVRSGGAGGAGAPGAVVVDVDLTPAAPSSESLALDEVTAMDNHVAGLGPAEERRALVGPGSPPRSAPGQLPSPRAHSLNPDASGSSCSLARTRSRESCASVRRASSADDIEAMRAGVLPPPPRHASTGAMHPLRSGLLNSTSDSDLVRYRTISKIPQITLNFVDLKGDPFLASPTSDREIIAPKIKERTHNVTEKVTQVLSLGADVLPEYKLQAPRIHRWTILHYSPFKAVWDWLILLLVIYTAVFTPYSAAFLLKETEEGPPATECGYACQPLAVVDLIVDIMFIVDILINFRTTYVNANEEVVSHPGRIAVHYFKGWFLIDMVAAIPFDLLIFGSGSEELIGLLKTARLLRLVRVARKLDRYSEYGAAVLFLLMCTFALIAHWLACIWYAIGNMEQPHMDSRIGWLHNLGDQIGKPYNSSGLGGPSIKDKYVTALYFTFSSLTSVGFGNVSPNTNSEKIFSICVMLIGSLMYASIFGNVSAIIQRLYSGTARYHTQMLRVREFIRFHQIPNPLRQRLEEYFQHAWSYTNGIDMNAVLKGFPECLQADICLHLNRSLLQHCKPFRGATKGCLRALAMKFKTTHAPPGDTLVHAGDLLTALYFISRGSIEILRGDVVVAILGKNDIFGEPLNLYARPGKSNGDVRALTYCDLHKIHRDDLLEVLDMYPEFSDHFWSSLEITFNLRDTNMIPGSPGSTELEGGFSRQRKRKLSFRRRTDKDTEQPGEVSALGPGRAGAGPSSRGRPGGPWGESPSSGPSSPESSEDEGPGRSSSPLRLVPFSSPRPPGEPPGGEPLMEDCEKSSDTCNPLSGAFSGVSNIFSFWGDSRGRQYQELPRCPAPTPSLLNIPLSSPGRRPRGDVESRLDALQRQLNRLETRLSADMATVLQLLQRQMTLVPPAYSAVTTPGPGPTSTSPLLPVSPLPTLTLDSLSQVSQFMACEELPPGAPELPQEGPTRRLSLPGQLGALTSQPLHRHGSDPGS

| AUC(0-t) [2] [ng·h/mL] | SMILES | hERG Inhibition (%) [1] [%] | also measured |
| --- | --- | --- | --- |
|  | O=C(O)c1cccn(-c2ccc(N[C@H]3CC[C@H](Nc4ncc(OC(F)F)cn4)C3)nc2)c1=O [Example A22, 6'-(((1S,3S)-3-((5-(difluoromethoxy)pyrimidin-2-yl)amino)cyclopentyl)amino)-2-oxo-2H-[1,3'-bipyridine]-3-carboxylic acid] |  | 30 uM-hERG Inhibition [1]: 19.56 |
|  | O=c1ccccn1-c1ccc(N[C@H]2CC[C@H](Nc3nc4ccccn4n3)C2)nc1 [Example C7, 6'-(((1S,3S)-3-([1,2,4]triazolo[1,5-a]pyridin-2-ylamino)cyclopentyl)amino)-2H-[1,3'-bipyridin]-2-one] | <50 |  |
| 32000 | COc1cc(-n2ccccc2=O)cnc1N[C@H]1CC[C@H](Nc2ncc(OC(F)F)cn2)C1 [Example A27, 6'-(((1S,3S)-3-((5-(difluoromethoxy)pyrimidin-2-yl)amino)cyclopentyl)amino)-5'-methoxy-2H-[1,3'-bipyridin]-2-one] |  | half-life [2]: 3.89 h; 30 uM-hERG Inhibition [1]: 40.72 |
|  | C#Cc1ccc2nc(N[C@H]3CC[C@H](Nc4ccc(-n5ccccc5=O)cn4)C3)nn2c1 [Example C26] | <50 |  |
|  | O=c1ccccn1-c1cnc(N[C@H]2CC[C@H](Nc3ncc(OC(F)F)cn3)C2)c(CO)c1 [Example A30] |  | 30 uM-hERG Inhibition [1]: 33.75 |
|  | O=c1c(Cl)cccn1-c1cnc(N[C@H]2CC[C@H](Nc3nc4cccnc4[nH]3)C2)c(F)c1 [Example C61] | <50 |  |
|  | Cn1c(=O)n(-c2ccc(N[C@H]3CC[C@H](Nc4nc5ccccn5n4)C3)nc2)c2cc(C#N)ccc21 [Example C64] | <50 |  |
| 29400 | O=c1c(Cl)cccn1-c1ccc(N[C@H]2CC[C@H](Nc3ncc(OC(F)F)cn3)C2)nc1 [Example A9, 3-chloro-6'-(((1S,3S)-3-((5-(difluoromethoxy)pyrimidin-2-yl)amino)cyclopentyl)amino)-2H-[1,3 '-bipyridin]-2-one] |  |  |
|  | O=c1c(Cl)cccn1-c1cnc(N[C@H]2CC[C@H](Nc3nc4ccccn4n3)C2)c(F)c1 [Example C36] | <50 |  |
| 41400 | O=c1cccnn1-c1cnc(N[C@H]2CC[C@H](Nc3nc4cccnc4s3)C2)c(F)c1 [Example C34] | <50 |  |
|  | O=c1c(Cl)ccnn1-c1ccc(N[C@H]2CC[C@H](Nc3nc4ccccn4n3)C2)nc1 [Example C65] | <50 |  |
|  | O=c1cccnn1-c1cnc(N[C@H]2CC[C@H](Nc3nc4cccnc4o3)C2)c(F)c1 [Example C48] | <50 |  |
| 53000 | O=c1cccnn1-c1cnc(N[C@H]2CC[C@H](Nc3nc4ccccn4n3)C2)c(F)c1 [Example C47, 2-(6-(((1S,3S)-3-([1,2,4]triazolo[1,5-a]pyridin-2-ylamino)cyclopentyl)amino)-5-fluoropyridin-3-yl)pyridazin-3(2H)-one] | <50 |  |
|  | O=c1cccnn1-c1cnc(N[C@H]2CC[C@H](Nc3nc4cccnc4[nH]3)C2)c(F)c1 [Example C69] | <50 |  |
| 43800 | O=c1ccccn1-c1cnc(N[C@H]2CC[C@H](Nc3ncc(OC(F)F)cn3)C2)c(F)c1 [Example A17, 6'-(((1S,3S)-3-((5-(difluoromethoxy)pyrimidin-2-yl)amino)cyclopentyl)amino)-5'-fluoro-2H-[1,3 '-bipyridin]-2-one] |  | half-life [2]: 2.97 h |
|  | O=c1cccnn1-c1ccc(N[C@H]2CC[C@H](Nc3nc4cccnc4[nH]3)C2)nc1 [Example C66] | <50 |  |
| 37700 | O=c1ccccn1-c1cnc(N[C@H]2CC[C@H](Nc3nc4cccnc4s3)C2)c(F)c1 [Example C22] | <50 |  |
| 42500 | N#Cc1cccn(-c2ccc(N[C@H]3CC[C@H](Nc4ncc(OC(F)F)cn4)C3)nc2)c1=O [Example A13, 6'-(((1S,3S)-3-((5-(difluoromethoxy)pyrimidin-2-yl)amino)cyclopentyl)amino)-2-oxo-2H-[1,3'-bipyridine]-3-carbonitrile] |  | half-life [2]: 6.02 h |
|  | O=c1ccccn1-c1cnc(N[C@H]2CC[C@H](Nc3nc4cccnc4[nH]3)C2)c(F)c1 [Example C56] | <50 |  |

| AUC(0-t) [2] [ng·h/mL] | SMILES | hERG Inhibition (%) [1] [%] | also measured |
| --- | --- | --- | --- |
| 40300 | O=c1ccccn1-c1cnc(N[C@H]2CC[C@H](Nc3nc4ccccn4n3)C2)cn1 [Example C9, 1-(5-(((1S,3S)-3-([1,2,4]triazolo[1,5-a]pyridin-2-ylamino)cyclopentyl)amino)pyrazin-2-yl)pyridi n-2(1H)-one] |  |  |
|  | O=c1ccc2cccnc2n1-c1ccc(N[C@H]2CC[C@H](Nc3nc4cccnc4s3)C2)nc1 [Example C84] | <50 |  |
|  | O=c1c(Cl)ccnn1-c1cnc(N[C@H]2CC[C@H](Nc3nc4ccccn4n3)C2)c(F)c1 [Example C67] | <50 |  |
|  | O=c1cccnn1-c1ccc(N[C@H]2CC[C@H](Nc3nc4ccccn4n3)C2)nc1 [Example C43] | <50 |  |
|  | COc1ccc2nc(N[C@H]3CC[C@H](Nc4ccc(-n5ccccc5=O)cn4)C3)nn2c1 [Example C21] | <50 |  |
| 39700 | O=c1cccnn1-c1ccc(N[C@H]2CC[C@H](Nc3nc4cccnc4s3)C2)nc1 [Example C35] | <50 |  |
|  | O=c1c(C2CC2)cccn1-c1ccc(N[C@H]2CC[C@H](Nc3nc4cccnc4[nH]3)C2)nc1 [Example C58] | <50 |  |
|  | O=c1ccc2cccnc2n1-c1ccc(N[C@H]2CC[C@H](Nc3nc4ccccn4n3)C2)nc1 [Example C71] | <50 |  |
|  | O=c1ccccn1-c1cnc(N[C@H]2CC[C@H](Nc3nc4nccnc4s3)C2)c(F)c1 [Example C19] | <50 |  |
| 70100 | O=c1cccnn1-c1cnc(N[C@H]2CC[C@H](Nc3ncc(OC(F)F)cn3)C2)c(F)c1 [Example A28, 2-(6-(((1S,3S)-3-((5-(difluoromethoxy)pyrimidin-2-yl)amino)cyclopentyl)amino)-5-fluoropyridin-3-yl)pyridazin-3(2H)-one] |  |  |
|  | O=c1ccccn1-c1ccc(N[C@H]2CC[C@H](Nc3nc4ncccn4n3)C2)nc1 [Example C30] | <50 |  |
|  | Cc1ccc2nc(N[C@H]3CC[C@H](Nc4ccc(-n5ccccc5=O)cn4)C3)nn2c1 [Example C32] | <50 |  |
| 39800 | O=c1ccccn1-c1cnc(N[C@H]2CC[C@H](Nc3nc4ccccn4n3)C2)c(F)c1 [Example C17, 6'-(((1S,3S)-3-([1,2,4]triazolo[1,5-a]pyridin-2-ylamino)cyclopentyl)amino)-5'-fluoro-2H-[1,3'-bipyridin]-2-one] | <50 |  |
| 31400 | O=c1c(F)cccn1-c1ccc(N[C@H]2CC[C@H](Nc3ncc(OC(F)F)cn3)C2)nc1 [Example A14, 6'-(((1S,3S)-3-((5-(difluoromethoxy)pyrimidin-2-yl)amino)cyclopentyl)amino)-3-fluoro-2H-[1,3' -bipyridin]-2-one] |  | half-life [2]: 4.42 h |
|  | O=c1ccccn1-c1cnc(N[C@H]2CC[C@H](Nc3nc4cccnc4o3)C2)c(F)c1 [Example C53] | <50 |  |
|  | O=c1ccccn1-c1ccc(N[C@H]2CC[C@H](Nc3nc4cccnc4s3)C2)nc1 [Example C15] | <50 |  |
| 60100 | CC(O)c1cccn(-c2ccc(N[C@H]3CC[C@H](Nc4ncc(OC(F)F)cn4)C3)nc2)c1=O (stereo partly drawn) [Example A35, 6'-(((1S,3S)-3-((5-(difluoromethoxy)pyrimidin-2-yl)amino)cyclopentyl)amino)-3-(1-hydroxyethyl)-2H-[1,3'-bipyridin]-2-one] |  | half-life [2]: 14.9 h; 30 uM-hERG Inhibition [1]: 33.81 |
|  | COc1ccn2nc(N[C@H]3CC[C@H](Nc4ccc(-n5ccccc5=O)cn4)C3)nc2c1 [Example C8, 6'-(((1S,3S)-3-((7-methoxy-[1,2,4]triazolo[1,5-a]pyridin-2-yl)amino)cyclopentyl)amino)-2H-[1,3 '-bipyridin]-2-one] | <50 |  |
